From ChEMBL document CHEMBL1201862, “PubChem BioAssay data set” (2004)
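In this assay, cells in 96-well plates receive the compound at five concentrations for 48 hours. Endpoints are linearly interpolated between the surrounding concentrations. GI50 = concentration required for 50% inhibition of growth.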 The source made the active and inactive calls. No stated cut-off is given here; in the data, active = GI50 up to about 1.1 µM and inactive = higher.

Legend:
Assay in all cases: growth of human tumour cells (NCI), 48 h
[1] = tested on: 786-0
[2] = tested on: A498
[3] = tested on: A549
[4] = tested on: ACHN
[5] = tested on: CAKI-1
[6] = tested on: CCRF-CEM
[7] = tested on: COLO 205
[8] = tested on: DLD-1
[9] = tested on: DMS-114
[10] = tested on: DMS-273
[11] = tested on: EKVX
[12] = tested on: HCC 2998
[13] = tested on: HCT-116
[14] = tested on: HCT-15
[15] = tested on: HL-60
[16] = tested on: HOP-18
[17] = tested on: HOP-62
[18] = tested on: HOP-92
[19] = tested on: HT-29
[20] = tested on: IGROV-1
[21] = tested on: K562
[22] = tested on: KM-20L2
[23] = tested on: KM12
[24] = tested on: LXFL 529
[25] = tested on: M14
[26] = tested on: M19-MEL
[27] = tested on: MOLT-4
[28] = tested on: Malme-3M
[29] = tested on: NCI-H226
[30] = tested on: NCI-H23
[31] = tested on: NCI-H460
[32] = tested on: NCI-H522
[33] = tested on: OVCAR-4
[34] = tested on: OVCAR-5
[35] = tested on: OVCAR-8
[36] = tested on: RPMI-8226
[37] = tested on: RXF 393
[38] = tested on: SF-268
[39] = tested on: SF-295
[40] = tested on: SF-539
[41] = tested on: SK-MEL-28
[42] = tested on: SK-MEL-2
[43] = tested on: SK-MEL-5
[44] = tested on: SK-OV-3
[45] = tested on: SN12C
[46] = tested on: SNB-19
[47] = tested on: SNB-75
[48] = tested on: SNB-78
[49] = tested on: SR
[50] = tested on: SW-620
[51] = tested on: TK-10
[52] = tested on: U-251
[53] = tested on: UACC-257
[54] = tested on: UACC-62
[55] = tested on: UO-31
[56] = tested on: LOX IMVI
[57] = tested on: OVCAR-3
[58] = tested on: MCF7

COC(=O)C1=C(C)C(=O)C2(CCCCCC2C(=O)OC)C1 (stereo not given)
GI50 [1]: > 100 µM (inactive)
GI50 [2]: > 100 µM (inactive)
GI50 [3]: > 100 µM (inactive)
GI50 [4]: > 100 µM (inactive)
GI50 [5]: > 100 µM (inactive)
GI50 [6]: > 100 µM (inactive)
GI50 [7]: > 100 µM (inactive)
GI50 [8]: > 100 µM (inactive)
GI50 [9]: > 100 µM (inactive)
GI50 [10]: > 100 µM (inactive)
GI50 [11]: > 100 µM (inactive)
GI50 [12]: > 100 µM (inactive)
GI50 [13]: > 100 µM (inactive)
GI50 [14]: > 100 µM
GI50 [15]: > 100 µM (inactive)
GI50 [16]: > 100 µM (inactive)
GI50 [17]: 68.7 µM (inactive)
GI50 [18]: > 100 µM (inactive)
GI50 [19]: > 100 µM (inactive)
GI50 [20]: > 100 µM (inactive)
GI50 [21]: > 100 µM (inactive)
GI50 [22]: > 100 µM (inactive)
GI50 [23]: > 100 µM (inactive)
GI50 [24]: > 100 µM (inactive)
GI50 [25]: > 100 µM (inactive)
GI50 [26]: > 100 µM (inactive)
GI50 [27]: > 100 µM (inactive)
GI50 [28]: > 100 µM (inactive)
GI50 [29]: > 100 µM (inactive)
GI50 [30]: > 100 µM (inactive)
GI50 [31]: > 100 µM (inactive)
GI50 [32]: 65.2 µM (inactive)
GI50 [33]: > 100 µM (inactive)
GI50 [34]: > 100 µM (inactive)
GI50 [35]: > 100 µM (inactive)
GI50 [36]: > 100 µM (inactive)
GI50 [37]: > 100 µM (inactive)
GI50 [38]: > 100 µM (inactive)
GI50 [39]: > 100 µM (inactive)
GI50 [40]: 63.7 µM (inactive)
GI50 [41]: > 100 µM (inactive)
GI50 [42]: > 100 µM (inactive)
GI50 [43]: > 100 µM (inactive)
GI50 [44]: > 100 µM (inactive)
GI50 [45]: > 100 µM (inactive)
GI50 [46]: > 100 µM (inactive)
GI50 [47]: > 100 µM (inactive)
GI50 [48]: > 100 µM (inactive)
GI50 [49]: > 100 µM (inactive)
GI50 [50]: > 100 µM (inactive)
GI50 [51]: > 100 µM (inactive)
GI50 [52]: > 100 µM (inactive)
GI50 [53]: > 100 µM (inactive)
GI50 [54]: > 100 µM (inactive)
GI50 [55]: > 100 µM (inactive)

COc1ccc(CN2CCC/C=C/CC(Cl)(Cl)C2=O)cc1
GI50 [1]: 35.8 µM (inactive)
GI50 [2]: 19.2 µM (inactive)
GI50 [3]: 35 µM (inactive)
GI50 [4]: 21 µM (inactive)
GI50 [5]: 38.4 µM (inactive)
GI50 [6]: 35.5 µM (inactive)
GI50 [7]: 20.4 µM (inactive)
GI50 [8]: 31.6 µM (inactive)
GI50 [9]: 24.7 µM (inactive)
GI50 [10]: 38.8 µM (inactive)
GI50 [12]: 35.3 µM (inactive)
GI50 [13]: 31.3 µM (inactive)
GI50 [14]: 34.2 µM
GI50 [15]: 28.2 µM (inactive)
GI50 [16]: 56.6 µM (inactive)
GI50 [17]: 50.9 µM (inactive)
GI50 [18]: 14.5 µM (inactive)
GI50 [19]: 35.8 µM (inactive)
GI50 [20]: 38.4 µM (inactive)
GI50 [21]: 35.6 µM (inactive)
GI50 [22]: 49.4 µM (inactive)
GI50 [23]: 36.6 µM (inactive)
GI50 [56]: 39.3 µM (inactive)
GI50 [24]: 31.4 µM (inactive)
GI50 [25]: 20.1 µM (inactive)
GI50 [26]: 29.2 µM (inactive)
GI50 [27]: 22.8 µM (inactive)
GI50 [28]: 23.8 µM (inactive)
GI50 [30]: 27.2 µM (inactive)
GI50 [31]: 29.4 µM (inactive)
GI50 [32]: 19.8 µM (inactive)
GI50 [57]: 34.8 µM (inactive)
GI50 [33]: 23 µM (inactive)
GI50 [34]: 42.7 µM (inactive)
GI50 [35]: 40 µM (inactive)
GI50 [36]: 24.3 µM (inactive)
GI50 [37]: 17 µM (inactive)
GI50 [38]: 26.6 µM (inactive)
GI50 [39]: 20.5 µM (inactive)
GI50 [40]: 33.6 µM (inactive)
GI50 [41]: 46.7 µM (inactive)
GI50 [42]: 19.8 µM (inactive)
GI50 [43]: 18 µM (inactive)
GI50 [44]: 27.9 µM (inactive)
GI50 [45]: 37.9 µM (inactive)
GI50 [46]: 25.2 µM (inactive)
GI50 [47]: 15.1 µM (inactive)
GI50 [49]: 24.1 µM (inactive)
GI50 [50]: 49.4 µM (inactive)
GI50 [51]: 29.7 µM (inactive)
GI50 [52]: 34.1 µM (inactive)
GI50 [54]: 43 µM (inactive)
GI50 [55]: 21.2 µM (inactive)

C[C@]12CC[C@@H]3c4ccc(OC(=O)N(CCCl)CCCl)cc4CC[C@H]3[C@@H]1CC[C@@H]2O [ESTRAMUSTINE]
GI50 [3]: 0.025 µM (active)
GI50 [5]: 0.025 µM (active)
GI50 [6]: 0.025 µM (active)
GI50 [8]: 0.025 µM (active)
GI50 [10]: 2.5 µM (inactive)
GI50 [11]: 0.025 µM (active)
GI50 [14]: 0.025 µM
GI50 [15]: 0.025 µM (active)
GI50 [16]: 6.04 µM (inactive)
GI50 [17]: 0.025 µM (active)
GI50 [18]: 0.025 µM (active)
GI50 [19]: 0.025 µM (active)
GI50 [20]: 0.025 µM (active)
GI50 [21]: 0.025 µM (active)
GI50 [26]: 0.025 µM (active)
GI50 [58]: 0.025 µM (active)
GI50 [30]: 0.025 µM (active)
GI50 [34]: 0.025 µM (active)
GI50 [35]: 0.025 µM (active)
GI50 [38]: 0.025 µM (active)
GI50 [41]: 0.025 µM (active)
GI50 [44]: 0.025 µM (active)
GI50 [45]: 0.025 µM (active)
GI50 [46]: 0.025 µM (active)
GI50 [48]: 0.025 µM (active)
GI50 [50]: 0.025 µM (active)
GI50 [52]: 1.78 µM (inactive)
